Earlier results as cited in US6518254B1, “Ribonucleoside-TRIBOSE” (priority 2002, dated 2003).

Experiments:
[1] = compared with Ribavirin
[2] = system: DNA and RNA viruses; conditions: in vitro tissue culture; at least 16 DNA and RNA viruses; Science, 177, 705, 1972

Row | Compound | immuno-modulatory activity [1] | antiviral activity in tissue culture [2]
1 | NC(=O)c1ncn([C@H]2O[C@@H](CO)[C@H](O)[C@@H]2O)n1 (single isomer, unassigned) [L isomer of Ribavirin] | immuno-modulatory activity similar to Ribavirin | 
2 | NC(=O)c1ncn([C@@H]2O[C@H](CO)[C@@H](O)[C@H]2O)n1 [Ribavirin, 1-beta-D-ribofuranosyl-1H-1,2,4-triazole-3-carboxamide] |  | active against at least 16 DNA and RNA viruses
